# Assay results taken from ChEMBL document CHEMBL1201862, “PubChem BioAssay data set” (2004).
#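 Values below derive from 48-hour exposures of cells grown in 96-well plates, with endpoints linearly interpolated between the two concentrations bracketing the appropriate inhibition level. GI50 = concentration required for 50% inhibition of growth.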 The source made the active and inactive calls. No stated cut-off is given here; in the data, active = GI50 up to about 1.1 µM and inactive = higher.
# Key:
# Experiment in all cases: inhibition of tumour cell growth, NCI panel, 48 h
# Malme-3M = tested on: Malme-3M
# MDA-MB-435 = tested on: MDA-MB-435
# BT-549 = tested on: BT-549
# HOP-18 = tested on: HOP-18
# SNB-78 = tested on: SNB-78
structure (smiles),measurement,setting,value
O=C(O)C12CC3CC(C1)C2C=C3P(=O)(O)O (stereo not given),GI50,Malme-3M,> 100 µM (inactive)
CCOC(=O)C1=NN(c2ccccc2)C2=CC(C)=NN(C)C(=S)N21,GI50,MDA-MB-435,> 100 µM (inactive)
same,GI50,BT-549,> 100 µM (inactive)
Cc1cc(O)nc(NN2C(Cl)C(=O)C2c2c(O)ccc3ccccc23)n1 (stereo not given),GI50,HOP-18,12 µM (inactive)
same,GI50,SNB-78,20.1 µM (inactive)
